The source of these data is patent US20230303570A1, “KINASE INHIBITORS AND USES THEREOF” (ABM Therapeutics Corporation, priority 2020, published 2023).

Data set [1] has as its target PAK1 (Homo sapiens, UniProt Q13153). Description: In vitro kinase assay, PAK1 (Caliper EZ Reader conversion). Format: biochemical. The arrangement: purchased Carna Biosciences. The procedure, abridged: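 Human PAK1 was preincubated with compound (6 concentrations, 4-fold dilutions) for 10 min at room temperature, then reacted with substrate mix for 30 and 60 min. Substrate conversion was read by Caliper mobility shift. IC50 was fitted by variable-slope log(inhibitor)–response, normalised to FRAX597 and buffer controls.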

Data set [2] concerns the target T1, SRC (Homo sapiens, UniProt P12931).
T1 construct: purchased Carna Biosciences
Description: In vitro kinase assay, SRC (Caliper EZ Reader conversion). Format: biochemical. The note with it: read-out: SRC IC50.

For data set [3], the target named is HPK1 (MAP4K1) (Homo sapiens, UniProt Q92918). Description: HPK1 (MAP4K1) kinase Lantha screen assay. It counts as biochemical. An outline of the steps:
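Recombinant MAP4K1 preincubated 10 min with compound (6-point dilution, duplicates) in 50 mM HEPES pH 7.5, 10 mM MgCl2, then reacted with Fluorescein-PKC substrate and ATP for 90 min at room temperature. Antibody detection solution stopped reaction; after 60 min, TR-FRET read at ex 340 nm, em 520/495 nm.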

Data set [4] can be described thus: Mouse pharmacokinetics study (intravenous and oral). Format: in vivo. The note with it: CD-1 mice; for F / AUC / Cmax / Tmax: PO 25 mg/kg; for Vd / half-life / clearance / AUC / Cmax / Tmax: mouse, plasma; for Vd / half-life / clearance: IV 5 mg/kg; for clearance: read-out: Clp. An excerpt: The test articles were formulated in […] Hydroxypropyl-beta-cyclodextrin, either as a clear solution or fine suspension.

T1 sequence (P12931 whole entry): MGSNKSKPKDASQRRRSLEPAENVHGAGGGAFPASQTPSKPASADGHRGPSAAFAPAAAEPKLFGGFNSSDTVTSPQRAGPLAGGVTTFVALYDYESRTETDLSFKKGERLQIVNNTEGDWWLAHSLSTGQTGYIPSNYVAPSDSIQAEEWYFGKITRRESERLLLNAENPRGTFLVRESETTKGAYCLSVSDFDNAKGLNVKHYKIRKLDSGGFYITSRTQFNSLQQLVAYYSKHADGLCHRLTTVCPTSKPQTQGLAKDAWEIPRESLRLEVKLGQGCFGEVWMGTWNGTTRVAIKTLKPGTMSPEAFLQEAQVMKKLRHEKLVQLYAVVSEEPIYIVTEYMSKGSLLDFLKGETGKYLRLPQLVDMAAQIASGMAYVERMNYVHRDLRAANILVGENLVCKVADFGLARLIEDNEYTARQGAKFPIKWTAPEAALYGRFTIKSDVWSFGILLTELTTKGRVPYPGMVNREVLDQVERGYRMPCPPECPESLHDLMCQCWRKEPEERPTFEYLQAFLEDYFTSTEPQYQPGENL
Sequence of HPK1 (MAP4K1) (Q92918 whole entry, species assumed): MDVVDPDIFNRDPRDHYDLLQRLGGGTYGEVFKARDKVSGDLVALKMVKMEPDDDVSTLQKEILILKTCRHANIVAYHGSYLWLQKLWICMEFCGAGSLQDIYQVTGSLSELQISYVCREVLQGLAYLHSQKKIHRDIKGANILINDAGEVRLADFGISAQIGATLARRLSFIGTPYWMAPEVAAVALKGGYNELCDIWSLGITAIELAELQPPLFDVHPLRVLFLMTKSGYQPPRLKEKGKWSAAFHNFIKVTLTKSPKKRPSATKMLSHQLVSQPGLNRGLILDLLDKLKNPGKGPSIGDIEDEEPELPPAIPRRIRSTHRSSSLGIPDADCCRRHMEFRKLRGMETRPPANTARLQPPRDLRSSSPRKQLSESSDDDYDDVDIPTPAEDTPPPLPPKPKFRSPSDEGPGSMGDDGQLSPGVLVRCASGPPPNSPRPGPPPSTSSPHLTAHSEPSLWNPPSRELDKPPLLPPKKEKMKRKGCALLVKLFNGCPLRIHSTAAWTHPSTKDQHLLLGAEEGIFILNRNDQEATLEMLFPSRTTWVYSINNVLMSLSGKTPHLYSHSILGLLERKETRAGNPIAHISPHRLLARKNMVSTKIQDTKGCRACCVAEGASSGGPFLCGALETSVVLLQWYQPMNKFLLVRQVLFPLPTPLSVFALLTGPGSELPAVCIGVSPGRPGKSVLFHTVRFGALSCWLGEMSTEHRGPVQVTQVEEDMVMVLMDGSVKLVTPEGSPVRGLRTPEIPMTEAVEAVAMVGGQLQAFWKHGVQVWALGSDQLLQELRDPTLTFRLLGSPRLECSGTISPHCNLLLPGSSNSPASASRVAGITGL
Sequence of PAK1 (Q13153 whole entry): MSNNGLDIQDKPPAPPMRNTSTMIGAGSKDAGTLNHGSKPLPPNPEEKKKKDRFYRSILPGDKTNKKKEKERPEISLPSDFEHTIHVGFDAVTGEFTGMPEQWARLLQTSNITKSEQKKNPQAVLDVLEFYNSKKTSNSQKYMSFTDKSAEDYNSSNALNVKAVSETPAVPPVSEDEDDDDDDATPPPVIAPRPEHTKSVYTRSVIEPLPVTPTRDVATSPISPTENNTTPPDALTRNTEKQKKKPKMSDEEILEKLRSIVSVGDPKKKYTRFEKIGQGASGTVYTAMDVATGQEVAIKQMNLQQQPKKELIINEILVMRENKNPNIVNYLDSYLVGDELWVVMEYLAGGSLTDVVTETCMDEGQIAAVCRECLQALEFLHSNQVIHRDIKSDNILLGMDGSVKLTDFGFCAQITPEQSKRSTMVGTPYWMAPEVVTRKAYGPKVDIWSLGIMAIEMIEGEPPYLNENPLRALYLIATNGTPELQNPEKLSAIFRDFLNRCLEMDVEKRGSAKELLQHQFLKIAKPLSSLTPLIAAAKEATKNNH

As a reminder, the IC50 is the concentration that gives 50% inhibition. For the molecule `CNc1ncc2c(n1)N1CCCN=C1C(c1ccc(-n3ccnc(C)c3=O)cc1)=C2` [Compound 64, 3-methyl-1-(4-(2-(methylamino)-9,10-dihydro-8H-pyrido[1,6-a:2,3-d′]dipyrimidin-6-yl)phenyl)pyrazin-2(1H)-one], the IC50 in data set [1] and in data set [2] was over 10 µM throughout.

Turning to `Fc1cc(N2CCNCC2)ccc1Nc1ncc2c(n1)N1CCCN=C1C(c1ccc(Cl)cc1Cl)=C2` [Compound 68, 6-(2,4-dichlorophenyl)-N-(2-fluoro-4-(piperazin-1-yl)phenyl)-9,10-dihydro-8H-pyrido[1,6-a:2,3-d′]dipyrimidin-2-amine], the IC50 in data set [1] is over 10 µM; in data set [2] it was 0.1 to 10 µM.

On to `Fc1cc(Nc2ncc3c(n2)N2CCCN=C2C(c2ccc(Cl)cc2Cl)=C3)ccc1N1CCNCC1` [Compound 69, 6-(2,4-dichlorophenyl)-N-(3-fluoro-4-(piperazin-1-yl)phenyl)-9,10-dihydro-8H-pyrido[1,6-a:2,3-d′]dipyrimidin-2-amine], for which the IC50 was 0.1 to 10 µM in data set [1] and under 0.1 µM in data set [2].

On to `COc1nc(N2CCNCC2)ccc1Nc1ncc2c(n1)N1CCCN=C1C(c1ccc(Cl)cc1Cl)=C2` [Compound 70, 6-(2,4-dichlorophenyl)-N-(2-methoxy-6-(piperazin-1-yl)pyridin-3-yl)-9,10-dihydro-8H-pyrido[1,6-a:2,3-d′]dipyrimidin-2-amine], for which the 50% inhibitory concentration (IC50) in data set [1] was over 10 µM; in data set [2], 0.1 to 10 µM.

On to `CNc1ncc2c(n1)N1CCCN=C1C(c1ccc(N3CCN(C)C3=O)cc1Cl)=C2` [Compound 71, 1-(3-chloro-4-(2-(methylamino)-9,10-dihydro-8H-pyrido[1,6-a:2,3-d′]dipyrimidin-6-yl)phenyl)-3-methylimidazolidin-2-one], for which the concentration for half-maximal inhibition (IC50) in data set [1] and in data set [2] was over 10 µM in each case.

As to `CNc1ncc2c(n1)N1CCCN=C1C(c1ccc(-n3cccc(C)c3=O)cc1Cl)=C2` [Compound 72, 1-(3-chloro-4-(2-(methylamino)-9,10-dihydro-8H-pyrido[1,6-a:2,3-d′]dipyrimidin-6-yl)phenyl)-3-methylpyridin-2(1H)-one], the IC50 in data set [1] is 0.1 to 10 µM; in data set [2], over 10 µM.

Take `CNc1ncc2c(n1)N1CCCN=C1C(c1ccc(-n3ccnc(C)c3=O)cc1Cl)=C2` [Compound 73, 1-(3-chloro-4-(2-(methylamino)-9,10-dihydro-8H-pyrido[1,6-a:2,3-d′]dipyrimidin-6-yl)phenyl)-3-methylpyrazin-2(1H)-one]: the IC50 in data set [1] and in data set [2] was over 10 µM throughout.

Turning to `Cc1ccc(NC(=O)c2cccc(C(F)(F)F)c2)cc1C1=Cc2cnc(N)nc2N2CCCN=C12` [Compound 75, N-(3-(2-amino-9,10-dihydro-8H-pyrido[1,6-a:2,3-d′]dipyrimidin-6-yl)-4-methylphenyl)-3-(trifluoromethyl)benzamide], the results for the half-inhibitory concentration (IC50) in data set [1] and in data set [2] were over 10 µM and under 0.1 µM, respectively.

As a reminder, the half-life is the time needed for the level to fall by half in the phase considered. As usually defined, the AUC is concentration integrated over time. Usually Cmax stands for the peak of the concentration-time curve. Broadly, the Tmax is the time at which the peak concentration occurs. In turn, `CNc1ncc2c(n1)N1CCN=C1C(c1cc(NC(=O)c3cc(C(C)(C)C#N)ccn3)ccc1C)=C2` [Compound 163, 4-(2-cyanopropan-2-yl)-N-(4-methyl-3-(2-(methylamino)-8,9-dihydroimidazo[1′,2′:1,6]pyrido[2,3-d]pyrimidin-6-yl)phenyl)picolinamide] had an IC50 in data set [3] of under 0.1 µM. Besides, in data set [4], the F is listed as 74.6 ± 54%, the Vd stood at 6.61 ± 1.04 L/kg, the half-life is 1.57 ± 0.2 h and the clearance was determined as 48.8 ± 5.8 mL/min/kg. For the same molecule, in data set [4], the AUC stood at 6320 ± 4580 ng·h/mL, the concentration peaked (Cmax) at 1100 ± 497 ng/mL and the time of peak concentration (Tmax) stood at 1.33 ± 0.58 h.

In data set [3], `Cc1cc(F)c(NC(=O)c2cc(C(C)(C)C#N)ccn2)cc1C1=Cc2cnc(NC3COC3)nc2N2CCN=C12` [Compound 181, 4-(2-cyanopropan-2-yl)-N-(2-fluoro-4-methyl-5-(2-(oxetan-3-ylamino)-8,9-dihydroimidazo[1′,2′:1,6]pyrido[2,3-d]pyrimidin-6-yl)phenyl)picolinamide] gave a concentration for half-maximal inhibition (IC50) of under 0.1 µM. Further, in data set [4], the F was determined as 58.1 ± 6.1%, the Vd turned out to be 4.78 ± 1.21 L/kg, the half-life is 2.01 ± 0.82 h and the clearance is 28.5 ± 3.8 mL/min/kg. Moreover, in data set [4], the AUC was 8610 ± 903 ng·h/mL, the Cmax stood at 1760 ± 380 ng/mL and the Tmax turned out to be 2 h.

As to `Cc1ccc(NC(=O)c2cc(C(C)(C)C#N)ccn2)cc1C1=Cc2cnc(Nc3cnn(C)c3)nc2N2CCN=C12` [Compound 199, 4-(2-cyanopropan-2-yl)-N-(4-methyl-3-(2-((1-methyl-1H-pyrazol-4-yl)amino)-8,9-dihydroimidazo[1′,2′:1,6]pyrido[2,3-d]pyrimidin-6-yl)phenyl)picolinamide], in data set [4], the AUC amounted to 1730 ± 619 ng·h/mL, the Cmax was determined as 245 ± 37 ng/mL and the Tmax is 2 h.

Turning to `Cc1cc(F)c(NC(=O)c2cc(C(C)(C)C#N)ccn2)cc1C1=Cc2cnc(Nc3cnn(C)c3)nc2N2CCN=C12` [Compound 202, 4-(2-cyanopropan-2-yl)-N-(2-fluoro-4-methyl-5-(2-((1-methyl-1H-pyrazol-4-yl)amino)-8,9-dihydroimidazo[1′,2′:1,6]pyrido[2,3-d]pyrimidin-6-yl)phenyl)picolinamide], in data set [4], the F came to 56 ± 9%, the Vd was determined as 9.64 ± 1.99 L/kg, the half-life was 3.99 ± 0.72 h and the clearance amounted to 27.8 ± 1 mL/min/kg. In data set [4], the exposure (AUC) worked out at 8160 ± 1270 ng·h/mL, the highest level (Cmax) was 839 ± 59 ng/mL and the Tmax was determined as 1.67 ± 0.58 h.

In turn, `Cc1ncc(Nc2ncc3c(n2)N2CCN=C2C(c2cc(NC(=O)c4cc(C(F)(F)F)ccn4)ccc2C)=C3)s1` [Compound 231, N-(4-methyl-3-(2-((2-methylthiazol-5-yl)amino)-8,9-dihydroimidazo[1′,2′:1,6]pyrido[2,3-d]pyrimidin-6-yl)phenyl)-4-(trifluoromethyl)picolinamide] gave an IC50 in data set [3] of under 0.1 µM. In addition, in data set [4], the AUC was determined as 16200 ± 2100 ng·h/mL, the Cmax was 1190 ± 302 ng/mL and the Tmax stood at 1.67 ± 0.58 h.

`Cc1csc(Nc2ncc3c(n2)N2CCN=C2C(c2cc(NC(=O)c4cc(C(F)(F)F)ccn4)ccc2C)=C3)n1` [Compound 233, N-(4-methyl-3-(2-((4-methylthiazol-2-yl)amino)-8,9-dihydroimidazo[1′,2′:1,6]pyrido[2,3-d]pyrimidin-6-yl)phenyl)-4-(trifluoromethyl)picolinamide] showed an IC50 in data set [3] of under 0.1 µM. In data set [4], the AUC was 12000 ± 2750 ng·h/mL, the peak concentration (Cmax) turned out to be 893 ± 258 ng/mL and the Tmax came to 6.67 ± 2.31 h.

In data set [3], `Cc1ccc(NC(=O)c2cc(C(F)(F)F)ccn2)cc1C1=Cc2cnc(Nc3ccn(C)n3)nc2N2CCN=C12` [Compound 234, N-(4-methyl-3-(2-((1-methyl-1H-pyrazol-3-yl)amino)-8,9-dihydroimidazo[1′,2′:1,6]pyrido[2,3-d]pyrimidin-6-yl)phenyl)-4-(trifluoromethyl)picolinamide] returned an IC50 of under 0.1 µM. Also, in data set [4], the AUC was found to be 20500 ± 2190 ng·h/mL, the concentration peaked (Cmax) at 1630 ± 151 ng/mL and the Tmax is 2 h.

As for `Cc1cc(Nc2ncc3c(n2)N2CCN=C2C(c2cc(NC(=O)c4cc(C(F)(F)F)ccn4)ccc2C)=C3)sn1` [Compound 242, N-(4-methyl-3-(2-((3-methylisothiazol-5-yl)amino)-8,9-dihydroimidazo[1′,2′:1,6]pyrido[2,3-d]pyrimidin-6-yl)phenyl)-4-(trifluoromethyl)picolinamide], in data set [4], the AUC was 36900 ± 4060 ng·h/mL, the Cmax came to 3060 ± 253 ng/mL and the Tmax was found to be 1.67 ± 0.58 h.

For the molecule `Cc1ccc(NC(=O)c2cc(C(F)(F)F)ccn2)cc1C1=Cc2cnc(Nc3cncs3)nc2N2CCN=C12` [Compound 256, N-(4-methyl-3-(2-(thiazol-5-ylamino)-8,9-dihydroimidazo[1′,2′:1,6]pyrido[2,3-d]pyrimidin-6-yl)phenyl)-4-(trifluoromethyl)picolinamide], in data set [4], the AUC worked out at 11700 ± 1430 ng·h/mL, the highest concentration (Cmax) worked out at 1180 ± 193 ng/mL and the Tmax was found to be 1.33 ± 0.58 h.
